Measured values taken from US9676721B2, “Compounds and compositions for the inhibition of NAMPT” (FORMA TM, LLC, priority 2010, dated 2017).

Experiments:
[1] = test system: A2780 cells; test: In-Vitro Cell Proliferation Assay (SRB); assay type: cell-based
Description: In-Vitro Cell Proliferation Assay […] After overnight incubation at 37° C. and 5% CO2, the compound titrations were performed in a separate dilution plate by serially diluting the compounds in DMSO to make a 1000× stock. The compounds were then further diluted to 10× final concentration in culture media, whereupon 20 μL of each dilution was added to the plated cells with controls (e.g. DMSO and blank) to make a final volume of 200 μL. The final DMSO concentration in each well was 0.1%. The plates were then incubated for 72 hours at 37° C. in a 5% CO2 incubator. The number of viable cells was then assessed using sulforhodamine B (SRB) assay. Cells were fixed at 4° C. for 1 hour with the addition of 50 μL 30% trichloroacetic acid (TCA) to make a final concentration of 6% TCA. The plates were washed four times with H2O and allowed to dry for at least 1 hour, whereupon 100 μL of a […] SRB in 1% acetic acid solution was added to each well and incubated at room temperature for at least 30 minutes. The plates were then washed three times with 1% acetic acid, dried, and treated with 100 μL of 10 mM Tris-Base solution. The plates were then read in a microplate reader at an absorbance of 570 nm. Background was generated on a separate plate with media only. Method for Determining % Inhibition First, the signals from the background plate are averaged, then the background was subtracted from the test plates. […] Formula for Determining IC50 Values: […] Specificity of Cytotoxicity. Inhibition of NAMPT could be reversed by the addition of NAM or NMN. The specificity of the compounds were determined via cell viability assay in the presence of the compound and either NAM or NMN. Percent inhibitions were determined using the method given above.

[2] = molecular target: NAMPT (Homo sapiens (Human), UniProt P43490); test: Biochemical Inhibition Assay (NAMPT enzymatic reaction, NMN by mass spectrometry); settings: recombinant His-tagged NAMPT 33 nM, 1 μM NAM, 30 minutes; read-out: Biochem IC50
Description: Biochemical Inhibition Assay NAMPT Protein Purification Recombinant His-tagged NAMPT was produced in E. coli cells, purified over a Ni column, and further purified over a size-exclusion column by XTAL Biostructures. The NAMPT Enzymatic Reaction The NAMPT enzymatic reactions were carried out in Buffer A (50 mM Hepes pH 7.5, 50 mM NaCl, 5 mM MgCl2, and 1 mM THP) in 96-well V-bottom plates. The compound titrations were performed in a separate dilution plate by serially diluting the compounds in DMSO to make a 100× stock. […] Background and signal strength was determined by addition (or non-addition) of a serial dilution of NMN to a pre-quenched enzyme and cofactor mix. Quantification of NMN A mass spectrometry-based assay was used to measure the NAMPT reaction product (NMN) and the internal control (L-Cystathionine). NMN and L-Cystathionine were detected using the services of Biocius Lifesciences with the RapidFire system. In short, the NMN and L-Cystathionine are bound to a graphitic carbon cartridge in 0.1% formic acid, eluted in 30% acetonitrile buffer, and injected into a Sciex 4000 mass spectrometer. The components of the sample were ionized with electrospray ionization and the positive ions were detected. […] The fragments are quantified and the analyzed by the following method. % Inhibitions are Determined Using this Method. First the NMN signal is normalized to the L-Cystathionine signal by dividing the NMN signal by the L-Cystathionine signal for each well. The signal from the background wells are averaged and subtracted from the test plates. […] IC50s are Determined Using Excel and this Formula.

Sequence of NAMPT (P43490 whole entry): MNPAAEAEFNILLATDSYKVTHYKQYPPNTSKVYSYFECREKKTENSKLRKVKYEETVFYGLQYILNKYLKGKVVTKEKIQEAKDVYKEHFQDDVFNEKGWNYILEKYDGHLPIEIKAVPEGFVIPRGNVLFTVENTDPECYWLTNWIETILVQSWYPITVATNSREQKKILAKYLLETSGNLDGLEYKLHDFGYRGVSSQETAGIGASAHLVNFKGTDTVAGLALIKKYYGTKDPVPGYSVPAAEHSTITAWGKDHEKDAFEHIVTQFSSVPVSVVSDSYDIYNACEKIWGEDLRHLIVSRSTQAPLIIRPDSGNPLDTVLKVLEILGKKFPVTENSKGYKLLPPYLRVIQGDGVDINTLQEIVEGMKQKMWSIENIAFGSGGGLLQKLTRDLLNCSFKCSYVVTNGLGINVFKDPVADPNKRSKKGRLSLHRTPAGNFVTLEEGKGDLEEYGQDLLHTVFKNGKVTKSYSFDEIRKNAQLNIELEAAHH

Row | IC50 ([1]; Homo sapiens, A2780, 72 h) [nM] | IC50 [2] [nM] | Structure (SMILES) | IC50 ([1]; 72 hours) [nM]
1 | 1.2 | 2.2 | Cc1ccc(S(=O)(=O)c2ccc(CNC(=NC#N)Nc3ccncc3)cc2)cc1C [2-cyano-1-({4-[(3,4-dimethylbenzene)sulfonyl]phenyl}methyl)-3-(pyridin-4-yl)guanidine] | –
2 | 13.7 | 5.9 | N#CN=C(NCc1ccc(S(=O)(=O)c2ccc(C#N)cc2)cc1)Nc1ccncc1 [2-cyano-1-({4-[(4-cyanobenzene)sulfonyl]phenyl}methyl)-3-(pyridin-4-yl)guanidine] | –
3 | 64 | 3.4 | CN(C)C(=O)c1cccc(S(=O)(=O)c2ccc(CNC(=NC#N)Nc3ccncc3)cc2)c1 [3-[(4-{[2-cyano-3-(pyridin-4-yl)carbamimidamido]methyl}benzene)sulfonyl]-N,N-dimethylbenzamide] | –
4 | 65.8 | 6.5 | CCNC(=O)c1ccc(S(=O)(=O)c2ccc(CNC(=NC#N)Nc3ccncc3)cc2)cc1 [4-[(4-{[2-cyano-3-(pyridin-4-yl)carbamimidamido]methyl}benzene)sulfonyl]-N-ethylbenzamide] | –
5 | 49.3 | 4.3 | Cn1cc(S(=O)(=O)c2ccc(CNC(=NC#N)Nc3ccncc3)cc2)cn1 [2-cyano-1-{[4-(1-methyl-1H-pyrazole-4-sulfonyl)phenyl]methyl}-3-(pyridin-4-yl)guanidine] | –
6 | 6.3 | 1.4 | Cc1ccc(S(=O)(=O)c2ccc(CNC(=NC#N)Nc3ccncc3)cc2)cn1 [2-cyano-1-{[4-(6-methylpyridine-3-sulfonyl)phenyl]methyl}-3-(pyridin-4-yl)guanidine] | –
7 | 1.6 | 1 | Cn1ncc2ccc(S(=O)(=O)c3ccc(CN/C(=N\C#N)Nc4ccncc4)cc3)cc21 [2-cyano-1-{[4-(1-methyl-1H-indazole-6-sulfonyl)phenyl]methyl}-3-(pyridin-4-yl)guanidine] | –
8 | 1.1 | 2.9 | CC(C)c1cccc(S(=O)(=O)c2ccc(CNC(=NC#N)Nc3ccncc3)cc2)c1 [2-cyano-1-[(4-{[3-(propan-2-yl)benzene]sulfonyl}phenyl)methyl]-3-(pyridin-4-yl)guanidine] | –
9 | 23.3 | 2.1 | CCCS(=O)(=O)Nc1cccc(S(=O)(=O)c2ccc(CNC(=NC#N)Nc3ccncc3)cc2)c1 [2-cyano-1-[(4-{[3-(propane-1-sulfonamido)benzene]sulfonyl}phenyl)methyl]-3-(pyridin-4-yl)guanidine] | –
10 | 13.4 | 4.8 | N#CN=C(NCc1ccc(S(=O)(=O)c2ccc(C(=O)N3CCCC3)cc2)cc1)Nc1ccncc1 [2-cyano-3-(pyridin-4-yl)-1-{[4-({4-[(pyrrolidin-1-yl)carbonyl]benzene}sulfonyl)phenyl]methyl}guanidine] | –
11 | 2.6 | 2.5 | Cc1ccc(S(=O)(=O)c2ccc(CN/C(=N\C#N)Nc3ccncc3)cc2)cc1 [2-cyano-1-({4-[(4-methylbenzene)sulfonyl]phenyl}methyl)-3-(pyridin-4-yl)guanidine] | –
12 | 7.5 | 11.7 | N#CN=C(NCc1ccc(S(=O)(=O)c2ccccc2CN2CCOCC2)cc1)Nc1ccncc1 [2-cyano-1-[(4-{[2-(morpholin-4-ylmethyl)benzene]sulfonyl}phenyl)methyl]-3-(pyridin-4-yl)guanidine] | –
13 | 3.3 | 5.6 | CCOc1ccc(S(=O)(=O)c2ccc(CNC(=NC#N)Nc3ccncc3)cc2)cc1 [2-cyano-1-({4-[(4-ethoxybenzene)sulfonyl]phenyl}methyl)-3-(pyridin-4-yl)guanidine] | –
14 | 4.6 | 5.2 | Cc1cccc(S(=O)(=O)c2ccc(CNC(=NC#N)Nc3ccncc3)cc2)c1 [2-cyano-1-({4-[(3-methylbenzene)sulfonyl]phenyl}methyl)-3-(pyridin-4-yl)guanidine] | –
15 | 27.8 | 6.5 | CNC(=O)c1ccc(S(=O)(=O)c2ccc(CNC(=NC#N)Nc3ccncc3)cc2)cn1 [5-[(4-{[2-cyano-3-(pyridin-4-yl)carbamimidamido]methyl}benzene)sulfonyl]-N-methylpyridine-2-carboxamide] | –
16 | 15 | 20.4 | COc1ccc(S(=O)(=O)c2ccc(CNC(=NC#N)Nc3ccncc3)cc2)cc1C [2-cyano-1-({4-[(4-methoxy-3-methylbenzene)sulfonyl]phenyl}methyl)-3-(pyridin-4-yl)guanidine] | –
17 | 2.8 | 3.8 | CC(C)c1ccc(S(=O)(=O)c2ccc(CNC(=NC#N)Nc3ccncc3)cc2)cc1 [2-cyano-1-[(4-{[4-(propan-2-yl)benzene]sulfonyl}phenyl)methyl]-3-(pyridin-4-yl)guanidine] | –
18 | 3.3 | 1.7 | Cc1cc(F)cc(S(=O)(=O)c2ccc(CN/C(=N\C#N)Nc3ccncc3)cc2)c1 [2-cyano-1-({4-[(3-fluoro-5-methylbenzene)sulfonyl]phenyl}methyl)-3-(pyridin-4-yl)guanidine] | –
19 | 3 | 3.8 | N#CN=C(NCc1ccc(S(=O)(=O)c2cccc3ccccc23)cc1)Nc1ccncc1 [2-cyano-1-{[4-(naphthalene-1-sulfonyl)phenyl]methyl}-3-(pyridin-4-yl)guanidine] | –
20 | 16.9 | 4.3 | CC(C)NC(=O)c1cccc(S(=O)(=O)c2ccc(CNC(=NC#N)Nc3ccncc3)cc2)c1 [3-[(4-{[2-cyano-3-(pyridin-4-yl)carbamimidamido]methyl}benzene)sulfonyl]-N-(propan-2-yl)benzamide] | –
21 | 14.5 | 3.2 | N#CN=C(NCc1ccc(S(=O)(=O)c2cccc(F)c2)cc1)Nc1ccncc1 [2-cyano-1-({4-[(3-fluorobenzene)sulfonyl]phenyl}methyl)-3-(pyridin-4-yl)guanidine] | –
22 | 1.5 | 1 | N#CN=C(NCc1ccc(S(=O)(=O)c2ccc(Cl)c(C(F)(F)F)c2)cc1)Nc1ccncc1 [1-[(4-{[4-chloro-3-(trifluoromethyl)benzene]sulfonyl}phenyl)methyl]-2-cyano-3-(pyridin-4-yl)guanidine] | –
23 | 66.9 | 20.7 | N#C/N=C(\NCc1ccc(S(=O)(=O)c2cccnc2)cc1)Nc1ccncc1 [2-cyano-3-(pyridin-4-yl)-1-{[4-(pyridine-3-sulfonyl)phenyl]methyl}guanidine] | –
24 | 7.6 | 16.3 | N#CN=C(NCc1ccc(S(=O)(=O)c2ccc(C(F)(F)F)cc2)cc1)Nc1ccncc1 [2-cyano-3-(pyridin-4-yl)-1-[(4-{[4-(trifluoromethyl)benzene]sulfonyl}phenyl)methyl]guanidine] | –
25 | 9.4 | – | N#CN=C(NCc1ccc(S(=O)(=O)c2cccc3c2OCO3)cc1)Nc1ccncc1 [1-{[4-(2H-1,3-benzodioxole-4-sulfonyl)phenyl]methyl}-2-cyano-3-(pyridin-4-yl)guanidine] | –
26 | 9.4 | – | N#CN=C(NCc1ccc(S(=O)(=O)c2ccc(-n3cccn3)c(F)c2)cc1)Nc1ccncc1 [2-cyano-1-[(4-{[3-fluoro-4-(1H-pyrazol-1-yl)benzene]sulfonyl}phenyl)methyl]-3-(pyridin-4-yl)guanidine] | –
27 | – | 3.5 | N#C/N=C(\NCc1ccc(S(=O)(=O)c2ccc(-c3ccccc3)cc2)cc1)Nc1ccncc1 [2-cyano-1-({4-[(4-phenylbenzene)sulfonyl]phenyl}methyl)-3-(p] [2-cyano-1-({4-[(4-phenylbenzene)sulfonyl]phenyl}methyl)-3-(pyridin-4-yl)guanidine] | –
28 | 6.2 | – | N#C/N=C(\NCc1ccc(S(=O)(=O)c2ccc(-c3ccccc3)cc2)cc1)Nc1ccncc1 [2-cyano-1-({4-[(4-phenylbenzene)sulfonyl]phenyl}methyl)-3-(pyridin-4-yl)guanidine] | –

Row | Structure (SMILES) | IC50 ([1]; Homo sapiens, A2780, 72 h) [nM] | IC50 [2] [nM] | IC50 ([1]; 72 hours) [nM]
29 | CCS(=O)(=O)c1cccc(S(=O)(=O)c2ccc(CNC(=NC#N)Nc3ccncc3)cc2)c1 [2-cyano-1-[(4-{[3-(ethanesulfonyl)benzene]sulfonyl}phenyl)methyl]-3-(pyridin-4-yl)guanidine] | – | 1.8 | 13.3
